Results taken from ChEMBL document CHEMBL3792284, “Synthesis of triazoloquinazolinone based compounds as tubulin polymerization inhibitors and vascular disrupting agents” (Eur J Med Chem, 2016).

Legend:
[1] = molecular target: Tubulin (Bos taurus, UniProt Q6B856+Q862L2+Q862F3); test: Inhibition of bovine tubulin polymerization after 1 hr by fluorescence spectrometry; type: protein assay
[2] = Growth inhibition of human HL-60(TB) cells at 10 uM after 48 hrs by sulforhodamine B assay; type: functional; conditions: HL-60, 48 h, read-out: GI
[3] = test system: K562; test: Growth inhibition of human K562 cells at 10 uM after 48 hrs by sulforhodamine B assay; type: functional; conditions: K562, 48 h, read-out: GI
[4] = test system: SR; test: Growth inhibition of human SR cells at 10 uM after 48 hrs by sulforhodamine B assay; type: functional; conditions: read-out: GI
[5] = test system: A549; test: Growth inhibition of human A549/ATCC cells at 10 uM after 48 hrs by sulforhodamine B assay; type: functional; conditions: A549, 48 h, read-out: GI
[6] = Growth inhibition of human HOP62 cells at 10 uM after 48 hrs by sulforhodamine B assay; type: functional; conditions: HOP-62, 48 h, read-out: GI
[7] = Growth inhibition of human COLO205 cells at 10 uM after 48 hrs by sulforhodamine B assay; type: functional; conditions: COLO 205, 48 h, read-out: GI
[8] = Growth inhibition of human HCT116 cells at 10 uM after 48 hrs by sulforhodamine B assay; type: functional; conditions: HCT-116, 48 h, read-out: GI
[9] = Growth inhibition of human HCT15 cells at 10 uM after 48 hrs by sulforhodamine B assay; type: functional; conditions: HCT-15, 48 h, read-out: GI
[10] = test system: HT-29; test: Growth inhibition of human HT-29 cells at 10 uM after 48 hrs by sulforhodamine B assay; type: functional; conditions: HT-29, 48 h, read-out: GI
[11] = Growth inhibition of human SF295 cells at 10 uM after 48 hrs by sulforhodamine B assay; type: functional; conditions: SF-295, 48 h, read-out: GI
[12] = Growth inhibition of human SNB75 cells at 10 uM after 48 hrs by sulforhodamine B assay; type: functional; conditions: SNB-75, 48 h, read-out: GI
[13] = test system: U-251; test: Growth inhibition of human U251 cells at 10 uM after 48 hrs by sulforhodamine B assay; type: functional; conditions: U-251, 48 h, read-out: GI
[14] = test system: MDA-MB-435; test: Growth inhibition of human MDA-MB-435 cells at 10 uM after 48 hrs by sulforhodamine B assay; type: functional; conditions: MDA-MB-435, 48 h, read-out: GI
[15] = Growth inhibition of human OVCAR3 cells at 10 uM after 48 hrs by sulforhodamine B assay; type: functional; conditions: OVCAR-3, 48 h, read-out: GI
[16] = Growth inhibition of human NCI-ADR-RES cells at 10 uM after 48 hrs by sulforhodamine B assay; type: functional; conditions: read-out: GI
[17] = test system: A498; test: Growth inhibition of human A498 cells at 10 uM after 48 hrs by sulforhodamine B assay; type: functional; conditions: A498, 48 h, read-out: GI
[18] = Growth inhibition of human Caki1 cells at 10 uM after 48 hrs by sulforhodamine B assay; type: functional; conditions: CAKI-1, 48 h, read-out: GI
[19] = Growth inhibition of human PC3 cells at 10 uM after 48 hrs by sulforhodamine B assay; type: functional; conditions: PC-3, 48 h, read-out: GI
[20] = Growth inhibition of human DU145 cells at 10 uM after 48 hrs by sulforhodamine B assay; type: functional; conditions: DU-145, 48 h, read-out: GI
[21] = test system: MCF7; test: Growth inhibition of human MCF7 cells at 10 uM after 48 hrs by sulforhodamine B assay; type: functional; conditions: MCF7, 48 h, read-out: GI
[22] = test system: MDA-MB-468; test: Growth inhibition of human MDA-MB-468 cells at 10 uM after 48 hrs by sulforhodamine B assay; type: functional; conditions: MDA-MB-468, 48 h, read-out: GI
[23] = Growth inhibition of human HL-60(TB) cells after 48 hrs by sulforhodamine B assay; type: functional; conditions: HL-60, 48 h
[24] = test system: K562; test: Growth inhibition of human K562 cells after 48 hrs by sulforhodamine B assay; type: functional; conditions: K562, 48 h
[25] = test system: A549; test: Growth inhibition of human A549/ATCC cells after 48 hrs by sulforhodamine B assay; type: functional; conditions: A549, 48 h
[26] = test system: NCI-H522; test: Growth inhibition of human NCI-H522 cells after 48 hrs by sulforhodamine B assay; type: functional; conditions: NCI-H522, 48 h
[27] = Growth inhibition of human COLO205 cells after 48 hrs by sulforhodamine B assay; type: functional; conditions: COLO 205, 48 h
[28] = Growth inhibition of human HCT15 cells after 48 hrs by sulforhodamine B assay; type: functional; conditions: HCT-15, 48 h
[29] = test system: HT-29; test: Growth inhibition of human HT-29 cells after 48 hrs by sulforhodamine B assay; type: functional; conditions: HT-29, 48 h
[30] = Growth inhibition of human SF295 cells after 48 hrs by sulforhodamine B assay; type: functional; conditions: SF-295, 48 h
[31] = Growth inhibition of human SNB75 cells after 48 hrs by sulforhodamine B assay; type: functional; conditions: SNB-75, 48 h
[32] = test system: U-251; test: Growth inhibition of human U251 cells after 48 hrs by sulforhodamine B assay; type: functional; conditions: U-251, 48 h
[33] = test system: SK-MEL-5; test: Growth inhibition of human SK-MEL-5 cells after 48 hrs by sulforhodamine B assay; type: functional; conditions: SK-MEL-5, 48 h
[34] = Growth inhibition of human OVCAR3 cells after 48 hrs by sulforhodamine B assay; type: functional; conditions: OVCAR-3, 48 h
[35] = test system: A498; test: Growth inhibition of human A498 cells after 48 hrs by sulforhodamine B assay; type: functional; conditions: A498, 48 h
[36] = Growth inhibition of human Caki1 cells after 48 hrs by sulforhodamine B assay; type: functional; conditions: CAKI-1, 48 h
[37] = Growth inhibition of human PC3 cells after 48 hrs by sulforhodamine B assay; type: functional; conditions: PC-3, 48 h
[38] = test system: MDA-MB-468; test: Growth inhibition of human MDA-MB-468 cells after 48 hrs by sulforhodamine B assay; type: functional; conditions: MDA-MB-468, 48 h
[39] = Cytotoxicity against human HL-60(TB) cells assessed as cell growth at 10 uM after 48 hrs by sulforhodamine B assay; type: functional; conditions: HL-60, 48 h, read-out: Activity
[40] = test system: NCI-H522; test: Cytotoxicity against human NCI-H522 cells assessed as cell growth at 10 uM after 48 hrs by sulforhodamine B assay; type: functional; conditions: NCI-H522, 48 h, read-out: Activity
[41] = test system: MDA-MB-435; test: Cytotoxicity against human MDA-MB-435 cells assessed as cell growth at 10 uM after 48 hrs by sulforhodamine B assay; type: functional; conditions: MDA-MB-435, 48 h, read-out: Activity
[42] = test system: HUVEC; test: Inhibition of cell invasion of HUVEC after 24 hrs by crystal violet staining based Boyden chamber assay; type: functional; conditions: Homo sapiens
[43] = test system: HUVEC; test: Inhibition of cell invasion of HUVEC at 0.1 uM after 24 hrs by crystal violet staining based Boyden chamber assay; type: functional; conditions: Homo sapiens
[44] = test system: HUVEC; test: Inhibition of cell invasion of HUVEC at 1 uM after 24 hrs by crystal violet staining based Boyden chamber assay; type: functional; conditions: Homo sapiens
[45] = test system: HUVEC; test: Cytotoxicity against HUVEC at 1 uM after 72 hrs by MTS assay; type: cell-based; conditions: human

## COc1ccc(-c2nnc3n(C)c(=O)c4ccccc4n23)cc1O
[1]
  IC50: 150 nM
[2]
  inhibition of growth at 10 µM: 100%
[3]
  inhibition of growth at 10 µM: 92%
[4]
  inhibition of growth at 10 µM: 95%
[5]
  inhibition of growth at 10 µM: 82%
[6]
  inhibition of growth at 10 µM: 90%
[7]
  inhibition of growth at 10 µM: 83%
[8]
  inhibition of growth at 10 µM: 86%
[9]
  inhibition of growth at 10 µM: 81%
[10]
  inhibition of growth at 10 µM: 81%
[11]
  inhibition of growth at 10 µM: 93%
[12]
  inhibition of growth at 10 µM: 88%
[13]
  inhibition of growth at 10 µM: 82%
[14]
  inhibition of growth at 10 µM: 100%
[15]
  inhibition of growth at 10 µM: 100%
[16]
  inhibition of growth at 10 µM: 85%
[17]
  inhibition of growth at 10 µM: 66%
[18]
  inhibition of growth at 10 µM: 66%
[19]
  inhibition of growth at 10 µM: 73%
[20]
  inhibition of growth at 10 µM: 81%
[21]
  inhibition of growth at 10 µM: 85%
[22]
  inhibition of growth at 10 µM: 70%
[23]
  GI50: 64 nM
[24]
  GI50: 40 nM
[25]
  GI50: 1840 nM
[26]
  GI50: 31 nM
[27]
  GI50: 3820 nM
[28]
  GI50: 52 nM
[29]
  GI50: 4310 nM
[30]
  GI50: 1990 nM
[31]
  GI50: 41 nM
[32]
  GI50: 125 nM
[33]
  GI50: 59 nM
[34]
  GI50: 45 nM
[35]
  GI50: 6420 nM
[36]
  GI50: 1220 nM
[37]
  GI50: 1430 nM
[38]
  GI50: 4330 nM
[39]
  growth at 10 µM: 19%
[40]
  growth at 10 µM: 5%
[41]
  growth at 10 µM: 62%
[42]
  inhibition: Dose-dependent effect
[43]
  inhibition at 0.1 µM: 36%
[44]
  inhibition at 1 µM: 89%
[45]
  Activity: Non-toxic
